Data: ChEMBL document CHEMBL4311992, “Discovery of 3-(((9H-purin-6-yl)amino)methyl)-4,6-dimethylpyridin-2(1H)-one derivatives as novel tubulin polymerization inhibitors for treatment of cancer” (Eur J Med Chem, 2019)
pIC50: −log10 of the molar value. Active and inactive are the calls of the source. The rule behind the calls is not given here.

What was measured:
[1] = tested on: Serine/threonine-protein kinase Nek4 (Homo sapiens), P51957 [P225A]; experiment: Inhibition of recombinant full-length human NEK4 P225A mutant assessed as residual activity at 10 uM using myelin basic protein as substrate measured after 40 mins in presence of [gamma33P]ATP by scintillation counting method
[2] = target: Muscle, skeletal receptor tyrosine-protein kinase (Homo sapiens) (UniProt O15146); experiment: Inhibition of recombinant human MuSK (530 to end residues) assessed as residual activity at 10 uM using myelin basic protein as substrate measured after 40 mins in presence of [gamma33P]ATP by scintillation counting method
[3] = tested on: Hepatocyte growth factor receptor (Homo sapiens), P08581 [Y1230H]; experiment: Inhibition of recombinant human MET A1209G/V1290L/Y1248H mutant (974 to end residues) assessed as residual activity at 10 uM using KKKGQEEEYVFIE as substrate measured after 40 mins in presence of [gamma33P]ATP by scintillation counting method
Homo sapiens [4] = species on record: Homo sapiens; experiment: Inhibition of recombinant human MAPKAPK2 A399G mutant (46 to end residues) assessed as residual activity at 10 uM using KKLNRTLSVA as substrate measured after 40 mins in presence of [gamma33P]ATP by scintillation counting method
[5] = target: Mitogen-activated protein kinase kinase kinase 5 (Homo sapiens) (UniProt Q99683); experiment: Inhibition of recombinant human ASK1 (649 to 946 residues) assessed as residual activity at 10 uM using myelin basic protein as substrate measured after 40 mins in presence of [gamma33P]ATP by scintillation counting method
[6] = target: Calcium/calmodulin-dependent protein kinase type 1 (Homo sapiens) (UniProt Q14012); experiment: Inhibition of recombinant human CaMK1 (2 to end residues) assessed as residual activity at 10 uM using […] as substrate measured after 40 mins in presence of [gamma33P]ATP by scintillation counting method
[7] = target: Homeodomain-interacting protein kinase 3 (Homo sapiens) (UniProt Q9H422); experiment: Inhibition of recombinant human HIPK3 (161 to 562 residues) assessed as residual activity at 10 uM using myelin basic protein as substrate measured after 40 mins in presence of [gamma33P]ATP by scintillation counting method
[8] = target: Tyrosine-protein kinase Fgr (Homo sapiens) (UniProt P09769); experiment: Inhibition of recombinant human FGR (2 to end residues) assessed as residual activity at 10 uM using poly(Glu, Tyr) 4:1 as substrate measured after 40 mins in presence of [gamma33P]ATP by scintillation counting method
[9] = target: Ephrin type-A receptor 5 (Homo sapiens) (UniProt P54756); experiment: Inhibition of recombinant human EphA5 (655 to 956 residues) assessed as residual activity at 10 uM using poly(Glu, Tyr) 4:1 as substrate measured after 40 mins in presence of [gamma33P]ATP by scintillation counting method
[10] = target: Death-associated protein kinase 1 (Homo sapiens) (UniProt P53355); experiment: Inhibition of recombinant human DAPK1 (1 to 296 residues) assessed as residual activity at 10 uM using KKLNRTLSFAEPG as substrate measured after 40 mins in presence of [gamma33P]ATP by scintillation counting method
[11] = Toxicity in Balb/c mouse lung at 80 mg/kg after 4 weeks by hematoxylin and eosin staining-based assay; type: organism-based; conditions: in vivo, 672 h
[12] = target: Activin receptor type-1 (Homo sapiens) (UniProt Q04771); experiment: Inhibition of recombinant human ALK2 (142 to end residues) assessed as residual activity at 10 uM using casein as substrate measured after 40 mins in presence of [gamma33P]ATP by scintillation counting method
HCT-116 [13] = experiment: Induction of apoptosis in human HCT116 cells assessed as increase in Bax expression up to 200 nM measured after 48 hrs by Western blot analysis; type: functional, cell-based
HCT-116 [14] = experiment: Antitumor activity against human HCT116 cells xenografted in nude BALB/c mouse assessed as tumor growth inhibition at 80 mg/kg, po administered once daily for 4 weeks measured post-last dose relative to control; type: functional; conditions: HCT-116, po, 672 h, read-out: TGI
[15] = tested on: Serine/threonine-protein kinase Chk2 (Homo sapiens), O96017 [I157T]; experiment: Inhibition of recombinant human CHK2 I157T mutant (5 to end residues) assessed as residual activity at 10 uM using KKKVSRSGLYRSPSMPENLNRPR as substrate measured after 40 mins in presence of [gamma33P]ATP by scintillation counting method
[16] = tested on: Serine/threonine-protein kinase Chk2 (Homo sapiens), O96017 [R145W]; experiment: Inhibition of recombinant human CHK2 R145W mutant (5 to end residues) assessed as residual activity at 10 uM using KKKVSRSGLYRSPSMPENLNRPR as substrate measured after 40 mins in presence of [gamma33P]ATP by scintillation counting method
[17] = target: Dual specificity tyrosine-phosphorylation-regulated kinase 1B (Homo sapiens) (UniProt Q9Y463); experiment: Inhibition of recombinant full-length human DYRK1B assessed as residual activity at 10 uM using RRRFRPASPLRGPPK as substrate measured after 40 mins in presence of [gamma33P]ATP by scintillation counting method
[18] = target: G protein-coupled receptor kinase 3 (Homo sapiens) (UniProt P35626); experiment: Inhibition of recombinant full-length human GRK5 assessed as residual activity at 10 uM using casein as substrate measured after 40 mins in presence of [gamma33P]ATP by scintillation counting method
[19] = target: Tyrosine-protein kinase Lyn (Homo sapiens) (UniProt P07948); experiment: Inhibition of recombinant full-length human Lyn assessed as residual activity at 10 uM using poly(Glu, Tyr) 4:1 as substrate measured after 40 mins in presence of [gamma33P]ATP by scintillation counting method
[20] = target: Mitogen-activated protein kinase 1 (Mus musculus) (UniProt P63085); experiment: Inhibition of mouse MAPK2 assessed as residual activity at 10 uM
Homo sapiens [21] = species on record: Homo sapiens; experiment: Inhibition of recombinant human Plk4 S34T mutant (1 to 273 residues) assessed as residual activity at 10 uM using casein as substrate measured after 40 mins in presence of [gamma33P]ATP by scintillation counting method
[22] = tested on: SNF-related serine/threonine-protein kinase (Homo sapiens), Q9NRH2 [UNDEFINED MUTATION]; experiment: Inhibition of human SNRK E97G/P116A mutant (65 to 409 residues) using KKLRRTLSFAEPG as substrate measured after 40 mins in presence of [gamma33P]ATP by scintillation counting method; set-up: scale not given: the % may be the effect or the level left
[23] = target: SRSF protein kinase 1 (Homo sapiens) (UniProt Q96SB4); experiment: Inhibition of human SRPK1 (2 to end residues) using RSRSRSRSRSRSRSR as substrate measured after 40 mins in presence of [gamma33P]ATP by scintillation counting method; set-up: scale not given: the % may be the effect or the level left
PLC-PRF-5 = experiment: Antiproliferative activity against human PLC/PRF/5 cells assessed as reduction in cell viability after 72 hrs by MTT assay; type: functional, cell-based; conditions: PLC-PRF-5, 72 h
A549 = experiment: cells; conditions: Homo sapiens, A549, 72 h
Description: Antiproliferative activity against human A549 cells after 72 hrs by MTT assay

Calcium/calmodulin-dependent protein kinase type 1 (Homo sapiens), sequence (Q14012 whole entry, looked up, the tested form may be a part): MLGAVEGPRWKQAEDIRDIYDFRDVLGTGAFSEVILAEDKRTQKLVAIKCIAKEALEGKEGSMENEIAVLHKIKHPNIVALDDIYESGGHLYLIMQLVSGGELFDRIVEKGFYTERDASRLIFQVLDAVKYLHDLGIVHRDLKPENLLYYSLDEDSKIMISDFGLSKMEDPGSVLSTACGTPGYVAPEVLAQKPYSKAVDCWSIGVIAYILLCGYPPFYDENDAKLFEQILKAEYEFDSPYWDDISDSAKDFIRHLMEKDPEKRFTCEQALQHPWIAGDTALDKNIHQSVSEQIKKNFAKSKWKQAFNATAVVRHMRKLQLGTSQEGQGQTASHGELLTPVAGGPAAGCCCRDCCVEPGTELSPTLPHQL
G protein-coupled receptor kinase 3 (Homo sapiens), sequence (P35626 whole entry): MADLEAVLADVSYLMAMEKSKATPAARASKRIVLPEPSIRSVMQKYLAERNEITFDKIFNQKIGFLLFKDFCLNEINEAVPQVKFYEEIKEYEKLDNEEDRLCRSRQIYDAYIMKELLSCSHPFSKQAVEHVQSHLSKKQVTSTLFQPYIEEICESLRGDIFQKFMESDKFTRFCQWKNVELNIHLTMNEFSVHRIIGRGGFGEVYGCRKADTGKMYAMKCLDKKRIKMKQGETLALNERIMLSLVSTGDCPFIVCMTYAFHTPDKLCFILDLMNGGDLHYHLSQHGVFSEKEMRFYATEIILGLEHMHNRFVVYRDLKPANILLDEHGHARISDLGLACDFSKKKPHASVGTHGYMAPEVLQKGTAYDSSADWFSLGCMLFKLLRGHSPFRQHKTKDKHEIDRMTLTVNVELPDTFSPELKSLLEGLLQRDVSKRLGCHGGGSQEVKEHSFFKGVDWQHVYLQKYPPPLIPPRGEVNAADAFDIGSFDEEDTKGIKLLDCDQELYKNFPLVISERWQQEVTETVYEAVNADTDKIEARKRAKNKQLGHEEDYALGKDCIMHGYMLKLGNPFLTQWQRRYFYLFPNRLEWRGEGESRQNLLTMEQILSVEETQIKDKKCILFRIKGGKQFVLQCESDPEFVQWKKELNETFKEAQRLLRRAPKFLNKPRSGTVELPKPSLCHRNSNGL
Death-associated protein kinase 1 (Homo sapiens), sequence (P53355 whole entry, looked up, the tested form may be a part): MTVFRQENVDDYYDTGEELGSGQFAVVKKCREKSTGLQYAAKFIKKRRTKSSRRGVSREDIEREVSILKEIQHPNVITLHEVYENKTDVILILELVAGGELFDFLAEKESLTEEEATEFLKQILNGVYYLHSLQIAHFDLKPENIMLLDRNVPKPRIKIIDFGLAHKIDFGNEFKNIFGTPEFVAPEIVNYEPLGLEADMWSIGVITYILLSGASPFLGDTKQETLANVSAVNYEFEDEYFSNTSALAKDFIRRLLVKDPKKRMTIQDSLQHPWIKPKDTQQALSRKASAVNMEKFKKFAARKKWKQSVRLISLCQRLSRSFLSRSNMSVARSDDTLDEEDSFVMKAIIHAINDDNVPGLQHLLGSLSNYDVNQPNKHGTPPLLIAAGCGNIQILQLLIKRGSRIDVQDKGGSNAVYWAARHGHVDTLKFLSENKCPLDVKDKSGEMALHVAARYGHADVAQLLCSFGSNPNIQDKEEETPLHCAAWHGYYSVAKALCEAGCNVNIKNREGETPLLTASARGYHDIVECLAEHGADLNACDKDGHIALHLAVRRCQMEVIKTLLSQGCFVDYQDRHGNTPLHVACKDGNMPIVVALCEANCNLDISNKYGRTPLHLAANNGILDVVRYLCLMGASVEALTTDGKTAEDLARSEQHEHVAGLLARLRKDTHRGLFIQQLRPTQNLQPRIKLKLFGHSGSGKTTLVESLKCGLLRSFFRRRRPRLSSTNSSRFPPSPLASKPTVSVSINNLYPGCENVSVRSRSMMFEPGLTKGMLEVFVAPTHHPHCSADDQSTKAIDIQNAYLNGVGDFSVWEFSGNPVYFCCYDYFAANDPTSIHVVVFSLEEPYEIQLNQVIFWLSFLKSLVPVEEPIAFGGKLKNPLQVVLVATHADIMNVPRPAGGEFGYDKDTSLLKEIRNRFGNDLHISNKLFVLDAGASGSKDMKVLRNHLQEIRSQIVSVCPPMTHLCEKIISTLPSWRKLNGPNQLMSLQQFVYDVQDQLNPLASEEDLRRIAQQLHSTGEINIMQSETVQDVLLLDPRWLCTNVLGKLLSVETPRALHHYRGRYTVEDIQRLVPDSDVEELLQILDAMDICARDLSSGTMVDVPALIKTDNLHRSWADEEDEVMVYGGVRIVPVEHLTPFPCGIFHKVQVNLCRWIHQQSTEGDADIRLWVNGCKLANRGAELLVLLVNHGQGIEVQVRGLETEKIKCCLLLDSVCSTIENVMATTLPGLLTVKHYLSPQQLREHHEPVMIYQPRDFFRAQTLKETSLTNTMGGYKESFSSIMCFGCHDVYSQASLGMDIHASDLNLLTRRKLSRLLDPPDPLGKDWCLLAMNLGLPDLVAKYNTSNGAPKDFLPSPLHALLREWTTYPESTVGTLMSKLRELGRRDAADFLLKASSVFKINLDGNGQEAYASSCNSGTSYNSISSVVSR
Mitogen-activated protein kinase kinase kinase 5 (Homo sapiens), sequence (Q99683 whole entry, the tested form may be a part): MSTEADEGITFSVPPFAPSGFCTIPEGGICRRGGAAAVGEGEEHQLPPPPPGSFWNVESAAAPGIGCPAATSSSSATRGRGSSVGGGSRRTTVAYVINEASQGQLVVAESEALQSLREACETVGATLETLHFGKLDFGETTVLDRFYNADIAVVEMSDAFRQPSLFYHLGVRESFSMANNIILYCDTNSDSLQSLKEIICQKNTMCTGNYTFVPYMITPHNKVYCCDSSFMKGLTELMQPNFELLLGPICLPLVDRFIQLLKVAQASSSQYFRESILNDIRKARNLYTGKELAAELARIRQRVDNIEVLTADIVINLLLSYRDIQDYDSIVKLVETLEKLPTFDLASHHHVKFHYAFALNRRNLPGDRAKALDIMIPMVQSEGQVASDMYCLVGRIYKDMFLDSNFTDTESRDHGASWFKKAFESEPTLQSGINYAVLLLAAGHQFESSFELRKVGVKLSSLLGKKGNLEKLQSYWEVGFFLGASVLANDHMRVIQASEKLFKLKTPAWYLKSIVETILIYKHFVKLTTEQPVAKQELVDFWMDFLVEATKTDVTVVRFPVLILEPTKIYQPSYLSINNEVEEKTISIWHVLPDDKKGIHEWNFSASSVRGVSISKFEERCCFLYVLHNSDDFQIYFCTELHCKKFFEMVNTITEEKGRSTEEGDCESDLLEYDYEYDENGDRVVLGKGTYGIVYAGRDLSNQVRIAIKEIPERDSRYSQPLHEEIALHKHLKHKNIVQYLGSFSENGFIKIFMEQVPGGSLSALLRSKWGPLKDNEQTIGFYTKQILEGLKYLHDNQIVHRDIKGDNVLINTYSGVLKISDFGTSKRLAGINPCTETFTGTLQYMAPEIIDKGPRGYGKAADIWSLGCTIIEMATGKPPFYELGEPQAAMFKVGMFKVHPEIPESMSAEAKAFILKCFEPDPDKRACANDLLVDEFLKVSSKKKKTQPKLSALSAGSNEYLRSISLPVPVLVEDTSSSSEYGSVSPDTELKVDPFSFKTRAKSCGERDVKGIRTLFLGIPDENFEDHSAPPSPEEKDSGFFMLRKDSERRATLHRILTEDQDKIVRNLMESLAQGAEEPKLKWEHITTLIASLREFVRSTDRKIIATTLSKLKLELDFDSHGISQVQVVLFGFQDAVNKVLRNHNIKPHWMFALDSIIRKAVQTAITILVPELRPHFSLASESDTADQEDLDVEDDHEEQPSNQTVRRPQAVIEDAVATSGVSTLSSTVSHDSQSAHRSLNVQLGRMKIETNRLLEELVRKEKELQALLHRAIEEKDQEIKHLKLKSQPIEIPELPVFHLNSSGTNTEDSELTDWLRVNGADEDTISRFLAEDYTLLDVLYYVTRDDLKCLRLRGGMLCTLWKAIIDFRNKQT
Homeodomain-interacting protein kinase 3 (Homo sapiens), sequence (Q9H422 whole entry, looked up, the tested form may be a part): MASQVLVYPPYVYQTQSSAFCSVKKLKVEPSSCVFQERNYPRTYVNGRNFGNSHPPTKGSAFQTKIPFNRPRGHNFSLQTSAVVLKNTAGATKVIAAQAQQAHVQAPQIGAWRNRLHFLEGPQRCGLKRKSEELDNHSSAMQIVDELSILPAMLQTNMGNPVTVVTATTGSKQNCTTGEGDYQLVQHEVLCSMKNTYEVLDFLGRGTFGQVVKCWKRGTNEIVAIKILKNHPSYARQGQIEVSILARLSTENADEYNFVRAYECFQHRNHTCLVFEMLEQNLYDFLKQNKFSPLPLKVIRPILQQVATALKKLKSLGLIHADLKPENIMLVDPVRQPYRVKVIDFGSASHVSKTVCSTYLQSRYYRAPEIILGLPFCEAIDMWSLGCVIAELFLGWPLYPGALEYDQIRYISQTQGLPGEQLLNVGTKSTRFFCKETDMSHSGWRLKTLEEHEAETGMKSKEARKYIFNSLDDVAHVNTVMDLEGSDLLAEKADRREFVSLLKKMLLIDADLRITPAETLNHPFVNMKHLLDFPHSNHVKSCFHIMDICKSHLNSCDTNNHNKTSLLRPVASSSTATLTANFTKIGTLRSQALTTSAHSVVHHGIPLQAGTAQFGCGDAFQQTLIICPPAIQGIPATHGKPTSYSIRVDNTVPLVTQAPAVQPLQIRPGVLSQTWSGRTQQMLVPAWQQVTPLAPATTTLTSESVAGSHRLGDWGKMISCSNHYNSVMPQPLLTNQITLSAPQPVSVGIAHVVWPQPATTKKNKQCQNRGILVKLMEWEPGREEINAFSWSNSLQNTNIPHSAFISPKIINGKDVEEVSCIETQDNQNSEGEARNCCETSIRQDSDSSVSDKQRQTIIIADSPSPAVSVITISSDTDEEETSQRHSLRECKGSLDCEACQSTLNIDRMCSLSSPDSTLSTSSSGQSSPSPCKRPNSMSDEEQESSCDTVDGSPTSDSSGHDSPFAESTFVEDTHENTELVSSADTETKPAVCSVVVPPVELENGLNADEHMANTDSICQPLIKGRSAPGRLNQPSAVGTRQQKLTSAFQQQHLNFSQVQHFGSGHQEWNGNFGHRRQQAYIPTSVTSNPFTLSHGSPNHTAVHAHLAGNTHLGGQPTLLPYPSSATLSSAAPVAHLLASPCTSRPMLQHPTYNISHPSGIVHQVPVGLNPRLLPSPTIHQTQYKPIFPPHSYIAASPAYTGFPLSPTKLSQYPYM

**Q.** Which Activity [1] does the source give for Cc1cc(C)c(CNc2nc(Cl)nc3c2ncn3C2CCCC2)c(=O)[nH]1 here?
**A.** The Activity was 104%.

**Q.** And the Activity [2]?
**A.** The Activity was 114%.

**Q.** And the Activity [3]?
**A.** The Activity was 99%.

**Q.** And the Activity (Homo sapiens [4])?
**A.** Its Activity is 124%.

**Q.** What about the Activity [5] of the same molecule?
**A.** The Activity was 102%.

**Q.** And the Activity [6]?
**A.** The Activity was 109%.

**Q.** What about the Activity [7] of the same molecule?
**A.** Its Activity is 106%.

**Q.** And the Activity [8]?
**A.** Its Activity is 94.5%.

**Q.** And the Activity [9]?
**A.** The Activity was 99%.

**Q.** And the Activity [10]?
**A.** Its Activity is 114%.

**Q.** What about the Activity [11] of the same molecule?
**A.** The Activity was “Non-Toxic”.

**Q.** And the Activity [12]?
**A.** The Activity was 106%.

**Q.** And the Activity (HCT-116 [13])?
**A.** The Activity was “Active”.

**Q.** What about the inhibition in vivo at 80 mg/kg (HCT-116 [14]) of the same molecule?
**A.** Its inhibition in vivo at 80 mg/kg is 71.6%.

**Q.** What about the Activity [15] of the same molecule?
**A.** Its Activity is 103%.

**Q.** And the Activity [16]?
**A.** The Activity was 103%.

**Q.** And the Activity [17]?
**A.** The Activity was 100%.

**Q.** What about the Activity [18] of the same molecule?
**A.** The Activity was 105%.

**Q.** And the Activity [19]?
**A.** The Activity was 119%.

**Q.** What about the Activity [20] of the same molecule?
**A.** The Activity was 97.5%.

**Q.** What about the Activity (Homo sapiens [21]) of the same molecule?
**A.** The Activity was 98.5%.

**Q.** What about the Activity [22] of the same molecule?
**A.** The Activity was 111%.

**Q.** What about the Activity [23] of the same molecule?
**A.** The Activity was 101%.

**Q.** What about the pIC50 (PLC-PRF-5) of the same molecule?
**A.** Its pIC50 is 6.54.

**Q.** And the pIC50 (A549)?
**A.** Its pIC50 is 7.00.
